For 61 compounds, ED50 results are on record in ChEMBL document CHEMBL1149131, “QSAR study of anticonvulsant negative allosteric modulators of the AMPA receptor” (J Med Chem, 2004).

Assay [1] addresses T1, Glutamate receptor ionotropic, AMPA (Mus musculus) (UniProt P23819+P23818+Q9Z2W8+Q9Z2W9). Put plainly: In vivo anticonvulsant activity was measured as median effective dose required to prevent clonic phase of seizure in DBA/2 mice. The assay is classed as functional, organism-based.
The target in assay [2] is T1, Glutamate receptor ionotropic, AMPA (Mus musculus). Put plainly: In vivo anticonvulsant activity was measured as median effective dose required to prevent tonic phase of seizure in DBA/2 mice. The assay is classed as functional, organism-based.

In general, ED50 refers to the dose that gives a 50% effect, or the effect in half of the subjects. Read a high ED50 as a need for a large dose.

T1 sequence (P23818 whole entry, looked up): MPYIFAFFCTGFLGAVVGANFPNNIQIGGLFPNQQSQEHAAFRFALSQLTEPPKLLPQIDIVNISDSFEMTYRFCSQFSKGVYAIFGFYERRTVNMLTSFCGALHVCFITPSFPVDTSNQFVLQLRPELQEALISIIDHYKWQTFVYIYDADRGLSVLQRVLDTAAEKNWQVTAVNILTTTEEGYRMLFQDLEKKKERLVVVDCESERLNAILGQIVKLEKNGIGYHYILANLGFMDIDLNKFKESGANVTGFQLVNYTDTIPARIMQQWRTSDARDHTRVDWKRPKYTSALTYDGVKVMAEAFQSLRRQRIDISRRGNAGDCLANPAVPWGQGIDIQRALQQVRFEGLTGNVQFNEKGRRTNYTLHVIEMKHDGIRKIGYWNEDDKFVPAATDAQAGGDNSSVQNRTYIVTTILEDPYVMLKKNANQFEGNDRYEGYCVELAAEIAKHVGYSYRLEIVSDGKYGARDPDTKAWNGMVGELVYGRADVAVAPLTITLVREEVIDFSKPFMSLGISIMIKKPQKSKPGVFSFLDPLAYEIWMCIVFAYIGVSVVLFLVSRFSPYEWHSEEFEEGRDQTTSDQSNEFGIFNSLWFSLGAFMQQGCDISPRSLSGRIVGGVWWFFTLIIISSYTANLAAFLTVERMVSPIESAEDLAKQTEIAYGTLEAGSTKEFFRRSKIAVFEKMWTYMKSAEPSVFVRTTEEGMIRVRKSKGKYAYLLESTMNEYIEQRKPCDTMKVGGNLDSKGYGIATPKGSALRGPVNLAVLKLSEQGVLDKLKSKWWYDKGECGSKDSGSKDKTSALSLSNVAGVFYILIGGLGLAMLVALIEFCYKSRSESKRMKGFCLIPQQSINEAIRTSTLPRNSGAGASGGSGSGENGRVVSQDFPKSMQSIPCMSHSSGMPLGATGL
T1 sequence (P23819 whole entry, looked up): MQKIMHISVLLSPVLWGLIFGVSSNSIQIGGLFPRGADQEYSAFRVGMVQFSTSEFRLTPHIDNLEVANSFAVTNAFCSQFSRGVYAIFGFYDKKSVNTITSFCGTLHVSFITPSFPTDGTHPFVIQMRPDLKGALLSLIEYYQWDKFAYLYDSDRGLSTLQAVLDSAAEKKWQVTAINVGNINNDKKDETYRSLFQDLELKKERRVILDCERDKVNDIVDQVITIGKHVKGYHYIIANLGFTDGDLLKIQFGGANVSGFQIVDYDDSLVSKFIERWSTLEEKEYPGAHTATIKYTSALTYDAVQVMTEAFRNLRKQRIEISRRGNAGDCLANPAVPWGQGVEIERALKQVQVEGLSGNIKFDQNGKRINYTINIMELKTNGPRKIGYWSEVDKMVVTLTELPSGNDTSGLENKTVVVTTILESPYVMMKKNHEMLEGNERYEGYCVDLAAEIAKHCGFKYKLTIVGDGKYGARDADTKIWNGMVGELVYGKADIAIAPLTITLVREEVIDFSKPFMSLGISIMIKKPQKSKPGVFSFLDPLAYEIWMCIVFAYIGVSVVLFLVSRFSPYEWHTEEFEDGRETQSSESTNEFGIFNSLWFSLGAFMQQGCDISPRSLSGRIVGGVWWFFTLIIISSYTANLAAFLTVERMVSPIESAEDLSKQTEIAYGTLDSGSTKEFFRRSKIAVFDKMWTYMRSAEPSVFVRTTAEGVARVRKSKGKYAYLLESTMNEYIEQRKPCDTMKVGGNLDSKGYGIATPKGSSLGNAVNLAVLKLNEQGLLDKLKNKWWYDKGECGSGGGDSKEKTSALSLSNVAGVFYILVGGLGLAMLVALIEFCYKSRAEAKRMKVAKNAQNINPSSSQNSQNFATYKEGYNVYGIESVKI
T1 sequence (Q9Z2W8 whole entry, looked up): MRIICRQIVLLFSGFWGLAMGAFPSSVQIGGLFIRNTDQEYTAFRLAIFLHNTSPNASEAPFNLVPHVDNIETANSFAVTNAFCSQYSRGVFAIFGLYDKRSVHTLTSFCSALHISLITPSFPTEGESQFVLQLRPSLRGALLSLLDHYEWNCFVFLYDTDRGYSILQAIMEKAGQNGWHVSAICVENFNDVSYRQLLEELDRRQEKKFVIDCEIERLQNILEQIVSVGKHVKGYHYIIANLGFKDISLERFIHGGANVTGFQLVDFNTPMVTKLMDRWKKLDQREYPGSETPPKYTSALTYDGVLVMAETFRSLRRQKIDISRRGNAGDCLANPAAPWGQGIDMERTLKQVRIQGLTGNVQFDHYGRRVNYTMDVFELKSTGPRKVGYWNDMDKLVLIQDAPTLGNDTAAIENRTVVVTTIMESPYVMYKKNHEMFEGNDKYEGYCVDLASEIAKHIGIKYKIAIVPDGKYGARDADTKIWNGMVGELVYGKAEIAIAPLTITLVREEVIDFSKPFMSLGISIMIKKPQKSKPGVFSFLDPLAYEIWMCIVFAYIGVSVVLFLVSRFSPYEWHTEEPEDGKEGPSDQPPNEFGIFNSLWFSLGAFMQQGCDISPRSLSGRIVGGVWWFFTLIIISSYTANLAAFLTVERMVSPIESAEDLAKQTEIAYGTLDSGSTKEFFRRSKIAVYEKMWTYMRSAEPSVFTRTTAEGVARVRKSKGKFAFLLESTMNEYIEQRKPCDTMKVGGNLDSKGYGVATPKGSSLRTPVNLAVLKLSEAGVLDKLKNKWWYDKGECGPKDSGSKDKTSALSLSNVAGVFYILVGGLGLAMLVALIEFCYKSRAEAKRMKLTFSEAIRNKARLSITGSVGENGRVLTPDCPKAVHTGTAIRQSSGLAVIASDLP
T1 sequence (Q9Z2W9 whole entry, looked up): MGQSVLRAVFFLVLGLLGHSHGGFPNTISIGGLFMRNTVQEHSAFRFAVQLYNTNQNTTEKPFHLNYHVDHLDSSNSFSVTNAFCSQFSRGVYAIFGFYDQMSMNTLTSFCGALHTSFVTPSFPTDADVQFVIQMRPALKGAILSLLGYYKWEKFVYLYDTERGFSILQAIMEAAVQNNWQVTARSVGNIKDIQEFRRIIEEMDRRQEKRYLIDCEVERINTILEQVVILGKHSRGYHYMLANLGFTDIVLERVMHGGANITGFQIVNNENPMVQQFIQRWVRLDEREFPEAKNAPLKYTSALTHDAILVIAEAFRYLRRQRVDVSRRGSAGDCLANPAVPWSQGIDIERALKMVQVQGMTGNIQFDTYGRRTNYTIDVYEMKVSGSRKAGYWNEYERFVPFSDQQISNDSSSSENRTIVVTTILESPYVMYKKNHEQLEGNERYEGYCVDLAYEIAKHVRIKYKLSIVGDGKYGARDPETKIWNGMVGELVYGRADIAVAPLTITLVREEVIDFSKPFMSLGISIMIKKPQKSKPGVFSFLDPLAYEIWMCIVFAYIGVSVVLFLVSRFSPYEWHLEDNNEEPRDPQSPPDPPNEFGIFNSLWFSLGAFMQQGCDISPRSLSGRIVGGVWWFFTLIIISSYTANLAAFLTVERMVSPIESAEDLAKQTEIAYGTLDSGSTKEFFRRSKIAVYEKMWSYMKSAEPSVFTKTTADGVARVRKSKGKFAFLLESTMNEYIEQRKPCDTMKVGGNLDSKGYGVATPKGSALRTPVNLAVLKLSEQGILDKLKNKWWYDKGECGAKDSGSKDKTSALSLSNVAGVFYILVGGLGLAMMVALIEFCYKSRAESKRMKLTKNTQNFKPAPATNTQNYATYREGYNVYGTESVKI

Consider `COc1cc2c(cc1OC)C(c1cccc(N)c1)=NN=C(S)C2`, for which the ED50 in assay [1] is 18.8 µmol/kg; in assay [2], 9.1 µmol/kg.

`COc1cc2c(cc1OC)C(c1cccc(N)c1)=NNC(=O)C2`: the ED50 stood at 19.3 µmol/kg in assay [1] and 18.3 µmol/kg in assay [2].

For `COc1cc2c(cc1OC)C(c1cccc([N+](=O)[O-])c1)N(C(C)=O)CC2` (configuration not stated), the ED50 amounted to 37.2 µmol/kg in assay [1] and 12.7 µmol/kg in assay [2].

`COc1cc2c(cc1OC)C(c1ccc(Cl)cc1)=NNC(=O)C2`: the median effective dose (ED50) came to 102 µmol/kg in assay [1] and 75.3 µmol/kg in assay [2].

For the compound `COc1cc2c(cc1OC)C(c1ccc(N(C(C)=O)C(C)=O)cc1)=NN(C(C)=O)C(=O)C2`, the median effective dose (ED50) in assay [1] was found to be 56.8 µmol/kg; in assay [2], 43.9 µmol/kg.

With `COc1cc2c(cc1OC)C(c1ccc([N+](=O)[O-])cc1)=NN(C)C(=S)C2`, the ED50 was determined as 103 µmol/kg in assay [1] and 81.5 µmol/kg in assay [2].

For the compound `COc1cc2c(cc1OC)C(c1ccc(N)cc1)=Nn1cnnc1C2`, the ED50 in assay [1] stood at 57.3 µmol/kg; in assay [2] it was 48.3 µmol/kg.

`COc1cc2c(cc1OC)C(c1ccc([N+](=O)[O-])cc1)NCC2` (configuration not stated): the ED50 in assay [1] worked out at 100 µmol/kg; in assay [2] it was 56.1 µmol/kg.

On to `COc1cc2c(cc1OC)C(c1ccccc1)=NN=C(S)C2`, for which the values for the ED50 in assay [1] and in assay [2] were 19.7 µmol/kg and 15 µmol/kg, respectively.

Take `COc1cc2c(cc1OC)C(c1ccc(F)cc1)=NNC(=O)C2`: the 50% effective dose (ED50) was 78 µmol/kg in assay [1] and 57.2 µmol/kg in assay [2].

For `COc1cc2c(O)nnc(-c3ccc(N)cc3)c2cc1OC`, the ED50 worked out at 60.5 µmol/kg in assay [1] and 52 µmol/kg in assay [2].

Take `COc1cc2c(cc1OC)C(c1ccc(N)cc1)=NNC(=O)C2`: the ED50 in assay [1] was 15 µmol/kg; in assay [2] it was 12.6 µmol/kg.

As to `CCCNC(=O)n1nc(-c2ccc(N)cc2)c2cc3c(cc2c1=O)OCO3`, the median effective dose (ED50) turned out to be 15.8 µmol/kg in assay [1] and 6.82 µmol/kg in assay [2].

For the compound `COc1cc2c(cc1OC)C(c1ccc([N+](=O)[O-])cc1)=Nn1c(C)nnc1C2`, the ED50 came to 66.7 µmol/kg in assay [1] and 59.3 µmol/kg in assay [2].

`COc1cc2c(cc1OC)C(c1ccc(N)cc1)=NN(C)C(=S)C2`: the results for the ED50 in assay [1] and in assay [2] were 29.8 µmol/kg and 20.3 µmol/kg, respectively.

With `COc1cc2c(cc1OC)C(c1ccccc1)=NNC(=O)C2`, the figures for the 50% effective dose (ED50) in assay [1] and in assay [2] were 33.9 µmol/kg and 31.8 µmol/kg, respectively.

As for `CN1N=C(c2ccc(N)cc2)c2cc3c(cc2CC1=O)OCO3`, the 50% effective dose (ED50) was 41.1 µmol/kg in assay [1] and 29.5 µmol/kg in assay [2].

Turning to `COc1cc2c(cc1OC)C(c1ccc(Br)cc1)=NN(C)C(=O)C2`, the median effective dose (ED50) in assay [1] amounted to 63 µmol/kg; in assay [2], 38 µmol/kg.

Take `COc1cc2c(-c3cccc(N)c3)nn(C)c(=O)c2cc1OC`: the ED50 is 63.7 µmol/kg in assay [1] and 55.2 µmol/kg in assay [2].

Turning to `COc1cc2c(cc1OC)C(c1ccc(N)cc1)=Nn1c(O)nnc1C2`, the ED50 in assay [1] came out at 16.1 µmol/kg; in assay [2], 10.2 µmol/kg.

Turning to `COc1cc2c(cc1OC)C(c1ccc([N+](=O)[O-])cc1)=NN=C(S)C2`, the results for the ED50 in assay [1] and in assay [2] were 93.4 µmol/kg and 69.8 µmol/kg, respectively.

On to `COc1cc2c(cc1OC)C(c1ccc(Br)cc1)NCC2` (configuration not stated), for which the figures for the ED50 in assay [1] and in assay [2] were 30.6 µmol/kg and 12.5 µmol/kg, respectively.

On to `CNC(=O)N1N=C(c2ccc(N)cc2)c2cc3c(cc2CC1=O)OCO3`, for which the ED50 in assay [1] was found to be 12.4 µmol/kg; in assay [2], 8.7 µmol/kg.

With `COc1cc2c(cc1OC)C(c1ccc(Cl)cc1)=NN(C)C(=O)C2`, the 50% effective dose (ED50) in assay [1] was determined as 41.2 µmol/kg; in assay [2], 38.6 µmol/kg.

Regarding `COc1cc2c(cc1OC)C(c1ccc([N+](=O)[O-])cc1)=Nn1c(O)nnc1C2`, the ED50 in assay [1] worked out at 74.1 µmol/kg; in assay [2], 58.3 µmol/kg.

With `O=C1Cc2cc3c(cc2C(c2ccccc2)=NN1)OCO3`, the values for the ED50 in assay [1] and in assay [2] were 43.3 µmol/kg and 40.6 µmol/kg, respectively.

For the compound `COc1cc2c(O)nnc(-c3ccc(NC(C)=O)cc3)c2cc1OC`, the values for the ED50 in assay [1] and in assay [2] were 62 µmol/kg and 48.8 µmol/kg, respectively.

`COc1cc2c(cc1OC)C(c1ccc(Cl)cc1)NCC2` (configuration not stated): the median effective dose (ED50) is 20.1 µmol/kg in assay [1] and 19.3 µmol/kg in assay [2].

For `COc1cc2c(cc1OC)C(c1ccc(N)cc1)=NN=C(S)C2`, the ED50 amounted to 6.3 µmol/kg in assay [1] and 3.3 µmol/kg in assay [2].

Regarding `COc1cc2c(cc1OC)C(c1ccc(Cl)cc1)=NN=C(S)C2`, the ED50 in assay [1] is 82.4 µmol/kg; in assay [2], 55 µmol/kg.

Turning to `COc1cc2c(cc1OC)C(c1ccccc1)=NN(C)C(=S)C2`, the figures for the 50% effective dose (ED50) in assay [1] and in assay [2] were 30.6 µmol/kg and 24.7 µmol/kg, respectively.

As for `COc1cc2c(cc1OC)C(c1ccccc1)=NN(C(C)=O)C(=O)C2`, the 50% effective dose (ED50) in assay [1] came to 101 µmol/kg; in assay [2], 72.1 µmol/kg.

As for `O=C1Cc2cc3c(cc2C(c2ccc(F)cc2)=NN1)OCO3`, the ED50 was 89.8 µmol/kg in assay [1] and 63.8 µmol/kg in assay [2].

For the compound `Oc1nnc(-c2ccccc2)c2cc3c(cc12)OCO3`, the ED50 in assay [1] was determined as 36.7 µmol/kg; in assay [2], 31.3 µmol/kg.

Consider `COc1cc2c(cc1OC)C(c1ccc(Br)cc1)=NNC(=O)C2`, for which the results for the ED50 in assay [1] and in assay [2] were 110 µmol/kg and 82.5 µmol/kg, respectively.

With `COc1cc2c(cc1OC)C(c1cccc(N)c1)=NN(C)C(=O)C2`, the ED50 came to 36.8 µmol/kg in assay [1] and 30.6 µmol/kg in assay [2].

`COc1cc2c(O)nnc(-c3cccc([N+](=O)[O-])c3)c2cc1OC`: the ED50 amounted to 81.7 µmol/kg in assay [1] and 75.5 µmol/kg in assay [2].

Turning to `CC1=NN=C(c2ccc(N)cc2)c2cc3c(cc2C1)OCO3`, the 50% effective dose (ED50) in assay [1] was determined as 35.8 µmol/kg; in assay [2], 25.3 µmol/kg.

On to `COc1cc2c(cc1OC)C(c1ccccc1)=Nn1c(O)nnc1C2`, for which the ED50 in assay [1] stood at 44.6 µmol/kg; in assay [2] it was 27.5 µmol/kg.

As for `Nc1cccc(-c2nnc(O)c3cc4c(cc23)OCO4)c1`, the 50% effective dose (ED50) in assay [1] came to 23.3 µmol/kg; in assay [2] it was 15.7 µmol/kg.

For `CN1N=C(c2ccccc2)c2cc3c(cc2CC1=O)OCO3`, the median effective dose (ED50) in assay [1] was 82.5 µmol/kg; in assay [2], 70.4 µmol/kg.

`COc1cc2c(cc1OC)C(c1ccc(N)cc1)=NN(C)C(=O)C2`: the results for the median effective dose (ED50) in assay [1] and in assay [2] were 50.2 µmol/kg and 43.7 µmol/kg, respectively.

As for `COc1cc2c(O)nnc(-c3cccc(N)c3)c2cc1OC`, the 50% effective dose (ED50) in assay [1] turned out to be 68.3 µmol/kg; in assay [2], 59.9 µmol/kg.

`COc1ccc2c(c1)CC(=O)NN=C2c1ccccc1`: the ED50 in assay [1] was 75.5 µmol/kg; in assay [2], 64.8 µmol/kg.

Take `COc1cc2c(cc1OC)C(c1ccc(Br)cc1)=NN(C)C(=S)C2`: the ED50 in assay [1] was determined as 105 µmol/kg; in assay [2], 60.4 µmol/kg.

On to `COc1cc2c(cc1OC)C(c1ccccc1)=NN(C)C(=O)C2`, for which the 50% effective dose (ED50) is 37.8 µmol/kg in assay [1] and 26.7 µmol/kg in assay [2].

Regarding `COc1ccc2c(c1)CC(=O)N(C)N=C2c1ccccc1`, the median effective dose (ED50) amounted to 117 µmol/kg in assay [1] and 99.1 µmol/kg in assay [2].

As for `Nc1cccc(C2=NNC(=O)Cc3cc4c(cc32)OCO4)c1`, the median effective dose (ED50) came out at 18 µmol/kg in assay [1] and 12.7 µmol/kg in assay [2].

As for `COc1cc2c(cc1OC)C(c1cccc([N+](=O)[O-])c1)=Nn1c(O)nnc1C2`, the median effective dose (ED50) came out at 56.4 µmol/kg in assay [1] and 43.2 µmol/kg in assay [2].

On to `COc1cc2c(cc1OC)C(c1cccc([N+](=O)[O-])c1)NCC2` (configuration not stated), for which the ED50 in assay [1] is 19.3 µmol/kg; in assay [2], 7.19 µmol/kg.

As for `COc1cc2c(cc1OC)C(c1ccc(Br)cc1)=NN=C(S)C2`, the ED50 in assay [1] is 52.1 µmol/kg; in assay [2], 33.3 µmol/kg.

For `Nc1ccc(-c2nnc(O)c3cc4c(cc23)OCO4)cc1`, the figures for the ED50 in assay [1] and in assay [2] were 21.2 µmol/kg and 7.56 µmol/kg, respectively.

As for `COc1cc2c(-c3cccc([N+](=O)[O-])c3)nn(C)c(=O)c2cc1OC`, the median effective dose (ED50) in assay [1] is 110 µmol/kg; in assay [2], 80.3 µmol/kg.

In the case of `CNC(=O)n1nc(-c2ccc(N)cc2)c2cc3c(cc2c1=O)OCO3`, the ED50 came to 23.4 µmol/kg in assay [1] and 16.8 µmol/kg in assay [2].

In the case of `COc1cc2c(cc1OC)C(c1ccc(N)cc1)=Nn1c(C)nnc1C2`, the 50% effective dose (ED50) in assay [1] was 59.9 µmol/kg; in assay [2], 44.7 µmol/kg.

In the case of `COc1cc2c(cc1OC)C(c1cccc(N)c1)=Nn1c(O)nnc1C2`, the median effective dose (ED50) in assay [1] turned out to be 20.1 µmol/kg; in assay [2], 13.1 µmol/kg.

Take `Nc1ccc(C2=NNC(=O)Cc3cc4c(cc32)OCO4)cc1`: the results for the ED50 in assay [1] and in assay [2] were 15.4 µmol/kg and 10.9 µmol/kg, respectively.

Take `SC1=NN=C(c2ccccc2)c2cc3c(cc2C1)OCO3`: the ED50 was 23.8 µmol/kg in assay [1] and 18.8 µmol/kg in assay [2].

Take `COc1cc2c(cc1OC)C(c1ccc(F)cc1)=Nn1c(O)nnc1C2`: the ED50 in assay [1] was found to be 32.1 µmol/kg; in assay [2] it was 21.8 µmol/kg.

Take `O=C1Cc2cc3c(cc2C(c2ccc(O)cc2)=NN1)OCO3`: the ED50 in assay [1] came to 52.3 µmol/kg; in assay [2], 49.6 µmol/kg.

In the case of `COc1ccc2c(c1)CC(=O)NN1C(c3ccccc3)=NOC21c1ccccc1` (configuration not stated), the ED50 in assay [1] came out at 119 µmol/kg; in assay [2] it was 100 µmol/kg.
